Laboratory results published in patent US7186725B2, “Anti-inflammatory compositions and methods” (Genzyme Corporation, priority 2003, dated 2007).
Read-outs that look alike come from different tables or passages of the source.

How the values were obtained:
[1] = test system: purified rat T cells; assay: Concanavalin A activated T-cell proliferation assay ([3H] thymidine uptake); type: cell-based; settings: 96 h, @ 1 mM
Method: Compounds of Formula I (above), based on an ethyl dimethylaminopropylurea (1) parent structure, have been discovered as active agents against a modified Concanavalin A activated T-cell proliferation assay using purified rat T-cells. These cells were incubated for 4 days and pulsed with [^3H] thymidine for the last 16 hrs of incubation. [^3H] Thymidine uptake was measured as the mean counts per minute (cpm) of duplicate experimental cultures. The compounds of the present invention were discovered by screening a compound library. (directed analogs of parent compound 1) using an assay designed to identify inhibitors of Concanavalin A stimulated T-cell proliferation. Normal dermal fibroblasts and kidney epithelial cell toxicity assays were run on active compounds to eliminate non-selective cytotoxic compounds.

[2] = test system: Septic Shock, Lipopolysaccharide; assay: Septic Shock, Lipopolysaccharide plus galactosamine in mice; type: in vivo, C57/BL mice
Method: Groups of 4 or 6 C57/BL mice weighing 18–20g were used. […] The blank control group was only applied 10% cremophor/10% ethanol IP and without LPS challenge. Mortality is recorded every 12 hours after challenge over a 3-day period. Protection of mortality by 50 percent or more (≧50%) indicates significant activity.

[3] = test system: IL-6; assay: Cellular assay: Mediator Release, IL-6; type: cell-based; settings: IL-6 release
[4] = test system: NF-κB; assay: Cellular assay: Transcription Response, NF-κB; type: cell-based
[5] = test system: IL-5; assay: Cellular assay: Mediator Release, IL-5; type: cell-based; settings: IL-5 release
[6] = test system: Autoimmune Encephalomyelitis (EAE); assay: Autoimmune Encephalomyelitis (EAE) model, PLP 139-151 immunized mice; type: in vivo, SJL/J mice; settings: 24 mg/kg daily day 1 to 16, FIG. 2
[7] = test system: TNF-α; assay: Cellular assay: Mediator Release, TNF-α; type: cell-based
[8] = test system: Interferon-γ; assay: Cellular assay: Mediator Release, Interferon-γ; type: cell-based
[9] = test system: IL-10; assay: Cellular assay: Mediator Release, IL-10; type: cell-based; settings: IL-10 release
[10] = test system: IL-1β; assay: Cellular assay: Mediator Release, IL-1β; type: cell-based; settings: IL-1β release
[11] = test system: Distal colitis induced by DNBS; assay: Inflammatory Bowel Disease: DNBS-induced distal colitis in rats; type: in vivo; settings: rat
Method: CM Hogaboam et al., Eur. J. Pharmacol.; 309; 261 (1996) Groups of 3 derived-male, overnight-fasted rats weighing 150±10 g are used. Distal colitis is induced by intra-colonic instillation of 0.5 ml/rat of DNBS (2,4-dinitrobenzene sulfonic acid, 60 mg/ml in ethanol 30%) after which air (2 ml) is gently injected through the cannula to ensure that the solution remains in the colon. […] The animals are sacrificed 24 hours after the final dose of test compound administration and each colon is removed and weighed.

[12] = Table 3, read-out: Thymidine Uptake (% Reduction @ 1 mM)
[13] = Table 2, read-out: Thymidine Uptake (% Reduction @ 1 mM)
[14] = Table 1, read-out: Thymidine Uptake (% Reduction @ 1 mM)

Compound: COc1ccc(CNC(=O)NCCCN(C)C)c(OC)c1 [Compound 47]
- inhibition at 1000 µM [1, 12]: 20%

Compound: CC(=O)OCC(=O)[C@@]1(O)[C@H](C)C[C@H]2[C@@H]3CCC4=CC(=O)C=C[C@]4(C)[C@@]3(F)[C@@H](O)C[C@@]21C [Dexamethasone-21-acetate, reference compound]
- Inhibition (protection of mortality) ([2]; 1 mg/kg PO dose): 100%
- Total Deaths ([2]; 1 mg/kg PO dose, N 4, 3-day period): 0

Compound: CCNC(=O)NCCCN1CC(C)OC(C)C1 (stereo not drawn) [Compound 28]
- inhibition at 1000 µM [1, 13]: 13%

Compound: CCNC(=O)Nc1nc2cc(C)c(C)cc2[nH]1 [Compound 19, 1-(5,6-dimethyl-1H-benzoimidazol-2-yl)-3-ethyl urea]
- inhibition at 1000 µM [1, 14]: 77%

Compound: CN(C)CCCNC(=O)NC1Cc2ccccc2C1 [Compound 45]
- inhibition at 1000 µM [1, 12]: 20%

Compound: CCNC(=O)NCCCN1CCSCC1 [Compound 26]
- inhibition at 1000 µM [1, 13]: 16%

Compound: CCNC(=O)NCCCN1CCN(c2cc(Cl)ccc2C)CC1 [Compound 36]
- inhibition at 1000 µM [1, 13]: 18%

Compound: CCNC(=O)NOC(C)(C)C [Compound 18]
- inhibition at 1000 µM [1, 14]: 25%

Compound: CCNC(=O)NC1CCN(C(=O)OCC)CC1 [Compound 13]
- inhibition at 1000 µM [1, 14]: 35%

Compound: CCNC(=O)Nc1nc2cc(C)c(C)cc2[nH]1 [Compound 56, 1-(5,6-dimethyl-1H-benzoimidazol-2-yl)-3-ethyl urea]
- inhibition at 10000 µM ([3]; Conc. 10 mM): 82%
- IC50 [3]: 3.89 µM
- IC50 [4]: 9.65 µM
- inhibition at 10000 µM ([4]; Conc. 10 mM): 52%
- inhibition at 10000 µM ([5]; Conc. 10 mM): 54%
- IC50 [5]: 9.28 µM
- Inhibition (protection of mortality) ([2]; IP 5 mg/kg): 17%
- Total Deaths ([2]; IP 5 mg/kg, N 6, 3-day period): 5
- Inhibition (protection of mortality) ([2]; IP 25 mg/kg): 50%
- response in septic shock model at the highest dose ([2]; IP 25 mg/kg): statistically significant response
- Total Deaths ([2]; IP 25 mg/kg, N 6, 3-day period): 3
- activity in septic shock model ([2]; IP 25 and 5 mg/kg): dose responsive activity
- effect on disease onset (ADSS) [6]: significant effect
- IC50 [7]: 1.94 µM
- inhibition at 10000 µM ([7]; Conc. 10 mM): 89%
- IC50 [8]: 6.49 µM
- inhibition at 10000 µM ([8]; Conc. 10 mM): 57%
- inhibition at 10000 µM ([9]; Conc. 10 mM): 63%
- IC50 [9]: 5.74 µM
- inhibition at 10000 µM ([10]; Conc. 10 mM): 91%
- IC50 [10]: 2.06 µM
- Ave. (colon to 100 g body weight ratio) ([11]; PO 5 mg/kg × 7): 0.678
- Inhibition (of net increase of colon to 100 g body weight ratio, relative to vehicle with DNBS) ([11]; PO 5 mg/kg × 7): 12%
- Net Inc. (net increase of colon to 100 g body weight ratio) ([11]; PO 5 mg/kg × 7): 0.381
- response in IBD model at the highest dose ([11]; PO 25 mg/kg): statistically significant response
- Ave. (colon to 100 g body weight ratio) ([11]; PO 25 mg/kg × 7): 0.585
- Inhibition (of net increase of colon to 100 g body weight ratio, relative to vehicle with DNBS) ([11]; PO 25 mg/kg × 7): 34%
- Net Inc. (net increase of colon to 100 g body weight ratio) ([11]; PO 25 mg/kg × 7): 0.288
- activity in IBD model ([11]; PO 25 and 5 mg/kg): dose responsive activity

Compound: CCNC(=O)NCCCN1CCN(c2ccccc2)C(C)C1 (stereo not drawn) [Compound 38]
- inhibition at 1000 µM [1, 13]: 13%

Compound: CCNC(=O)NCCN1CCCCC1 [Compound 6]
- inhibition at 1000 µM [1, 14]: 33%

Compound: CCNC(=O)NCC(C)(C)C [Compound 25]
- inhibition at 1000 µM [1, 14]: 60%

Compound: CN(C)CCCNC(=O)NCc1csc2ccccc12 [Compound 54]
- inhibition at 1000 µM [1, 12]: 16%

Compound: CCNC(=O)Nc1ncnc2[nH]ncc12 [Compound 21]
- inhibition at 1000 µM [1, 14]: 95%

Compound: CCNC(=O)Nc1nc2ccccc2s1 [Compound 8]
- inhibition at 1000 µM [1, 14]: 22%

Compound: CCNC(=O)Nc1cccc(OC(F)(F)F)c1 [Compound 10]
- inhibition at 1000 µM [1, 14]: 30%

Compound: CCNC(=O)NCCCN1CCC(Cc2ccccc2)CC1 [Compound 33]
- inhibition at 1000 µM [1, 13]: 17%

Compound: CCNC(=O)Nc1cccc2nsnc12 [Compound 7]
- inhibition at 1000 µM [1, 14]: 25%

Compound: CN(C)CCCNC(=O)Nc1nnn[nH]1 [Compound 52]
- inhibition at 1000 µM [1, 12]: 14%

Compound: CN(C)CCCNC(=O)Nc1ncnc2[nH]ncc12 [Compound 51]
- inhibition at 1000 µM [1, 12]: 86%

Compound: CCNC(=O)NCCCN1CCN(C/C=C\c2ccccc2)CC1 [Compound 37]
- inhibition at 1000 µM [1, 13]: 23%

Compound: CCNC(=O)NCCCN1CCC(C(=O)c2ccc(Cl)cc2)CC1 [Compound 35]
- inhibition at 1000 µM [1, 13]: 55%

Compound: CCNC(=O)NCc1ccco1 [Compound 2]
- inhibition at 1000 µM [1, 14]: 16%

Compound: CCNC(=O)Nc1ccc(C(N)=O)cc1 [Compound 16]
- inhibition at 1000 µM [1, 14]: 27%

Compound: CCNC(=O)NCCCN1CCN(c2cccc(C)c2C)CC1 [Compound 31, 1-{3′-[4-(2,3-xylyl)-piperazin-1-yl]-propyl}-3-ethyl urea]
- inhibition at 1000 µM [1, 13]: 21%

Compound: CCNC(=O)NCC(c1ccccc1)c1ccccc1 [Compound 4]
- inhibition at 1000 µM [1, 14]: 26%

Compound: CCNC(=O)NCC1CCCO1 (stereo not drawn) [Compound 3]
- inhibition at 1000 µM [1, 14]: 26%
